Data reported in ChEMBL document CHEMBL1157539, “Thousands of chemical starting points for antimalarial lead identification” (Nature, 2010).

test system: Plasmodium falciparum; assay: GSK_TCMDC: Inhibition of Plasmodium falciparum 3D7 in whole erythrocytes, using parasite LDH activity as an index of growth.; type: functional, organism-based; details: Plasmodium falciparum, 3D7

| Compound | XC50 |
| --- | --- |
| OCCN1CCN(C(=S)NC2CCCCC2)CC1 | 1.1 µM |
| CCOC(=O)c1nc(-c2cc(Cl)nc(Cl)c2)[nH]c1NC(=S)NCc1ccc(NS(C)(=O)=O)cc1 | 0.892 µM |
| CC(C)(C)c1ccc(CN2CCCCC(NC(=O)c3cc(-c4ccccc4Cl)cs3)C2)cc1 (configuration not stated) | 1.12 µM |
| COc1ccc(-c2cnc3[nH]cc(-c4ccc(C(=O)O)c(C)c4)c3c2)cn1 | 0.311 µM |
| COc1cc(Nc2nccc(N3CCC(NC(=O)c4cccc(NC(C)=O)c4)C3)n2)cc(OC)c1OC (configuration not stated) | 0.828 µM |
| CCOC(=O)C1=C(C)N=c2sc(=Cc3cc(Cl)ccc3O)c(=O)n2C1c1cc(OC)c(OC)cc1Br (configuration not stated) | 0.993 µM |
| CCOc1cc(C(=O)NC2CCN(Cc3ccccc3)C2)ccc1-c1nc2cc(Cl)ccc2[nH]1 (configuration not stated) | 1.01 µM |
| O=C(NC1CCN(Cc2ccccc2O)C1)c1ccc(Cl)c(Cl)c1 (configuration not stated) | 0.894 µM |
| c1cc(CNCC2CCCO2)cc(-c2csc(-c3nc4ccccc4[nH]3)c2)c1 (configuration not stated) | 1.04 µM |
| Cc1cc(=NN=Cc2cccc(Cl)c2)c2ccc(F)cc2[nH]1 | 0.24 µM |
| N#Cc1ccc(CN2CCC(Oc3ccc(NC(=O)c4cccs4)cc3Cl)CC2)cc1 | 0.577 µM |
| CCCC(=O)Nc1ccc(OCCCN(Cc2ccccc2F)c2ccc(C#N)c(C(F)(F)F)c2)cc1 | 0.595 µM |
| CCN(CC)CCCC(C)Nc1c2ccc(Cl)cc2nc2ccc(OC)cc12 (configuration not stated) | 0.0441 µM |
| COc1ccc(CNCc2cccc(-c3cccc(-c4nc5ccccc5[nH]4)c3)c2)cc1 | 0.368 µM |
| NS(=O)(=O)c1cccc(-c2ccc3ncc(N4CCOCC4)nc3c2)c1 | 0.987 µM |
| Cc1[nH]c(C)c(-c2cc3ccccc3o2)c(=O)c1Cl | 1.72 µM |
| Oc1ccccc1-c1nc2cccnc2n1CCc1cccc(C(F)(F)F)c1 | 1.27 µM |
| Cc1cc(OCC2CCCN(c3ncc(C(=O)NC4CC4)cc3Cl)C2)ccc1F (configuration not stated) | 1.49 µM |
| CCCNCc1ccc(-c2ccc(CN(CC3CCCO3)C(=O)COc3ccccc3Cl)cc2)nc1 (configuration not stated) | 1.18 µM |
| Cc1cccc2nc(-c3cccc(-c4ccc(NC(=O)c5ccncc5)cc4)c3)[nH]c12 | 0.497 µM |
| COc1cccc(NC(=O)N2CCOC(CCN3CCC4(CCc5ccccc54)CC3)(c3ccc(Cl)c(Cl)c3)C2)c1 (configuration not stated) | 1.01 µM |
| COc1cc(Cc2cnc(N)nc2N)ccc1OCc1ccc(NC(C)=O)cc1 | 0.368 µM |
| CCNc1cc(C(=O)N[C@@H](Cc2ccccc2)[C@H](O)CNCCc2ccccc2)cc(N2CCCC2=O)c1 | 0.844 µM |
| CC(=O)Nc1ccc(CN2CCC(NC(=O)c3ccc(-c4cccc(C(F)(F)F)c4)s3)CC2)cc1 | 0.89 µM |
| CCC[C@@H]([C@@H](CC(C)C)C(=O)N[C@@H](CCCCNC(=O)OCc1ccccc1)C(=O)Nc1ncccn1)N(O)C=O | 0.0591 µM |

| Compound | XC50 |
| --- | --- |
| CC(=O)c1ccc(N2CCN(C(=O)Nc3ccc(Cl)cc3)CC2)cc1 | 0.979 µM |
| O=C(NCCCCN1CCC(c2ccc(-c3ccco3)cc2)CC1)c1ccc(NC(=O)c2ccc(Cl)cc2)cc1 | 0.538 µM |
| N=C(N)NN=Cc1ccc2c(ccc3ccccc32)c1 | 0.634 µM |
| CC(C)N(Cc1cnc2nc(N)nc(N)c2n1)c1ccc(Cl)c(Cl)c1 | 0.158 µM |
| COc1cc(C(=O)N2CCN(C(C)C)CC2)ccc1CN(C)CCCCN1CCN(c2cccc(Cl)c2Cl)CC1 | 0.704 µM |
| CCN(CC)C(=O)C1CCCN(c2cc(C)nc(Nc3ccc(Cl)cc3)n2)C1 (configuration not stated) | 0.718 µM |
| CC(C)c1ccc(CN2CCCCC(NC(=O)c3cc(-c4ccccc4Cl)cs3)C2)cc1 (configuration not stated) | 1.12 µM |
| CCc1cccc(-c2cc(N)n(C)c3nc(N)nc(=O)c2-3)c1 | 1.12 µM |
| CCCCCCCC/C=C\CCCCCCCC(=O)NCc1ccc(O)c(OC)c1 [OLVANIL] | 0.402 µM |
| CN1CCCN(Cc2cccc(-c3cccc(NC(=O)c4ccc(Cl)cc4)c3)c2)CC1 | 0.922 µM |
| CC1(C(=O)Nc2ccc([N+](=O)[O-])cc2O)CC2c3ccccc3C1c1ccccc12 (configuration not stated) | 0.715 µM |
| Cc1ccc(-n2cc(CNCCc3nc(C)c[nH]3)c(-c3ccc(F)cc3)n2)cc1 | 1.51 µM |
| COc1ccc(Nc2nc(C)cc(NC3CCCC3)n2)cc1 | 0.872 µM |
| O=C(NCc1ccc(C(=O)NC2CCCCCC2)cc1)c1ccc(O)c(-c2ccc(Cl)c(Cl)c2)c1 | 1.06 µM |
| COc1ccc(CNCc2ccc(-c3cccc(-c4nc5cc(F)ccc5[nH]4)c3)cc2)cc1 | 0.202 µM |
| COc1ccc(-c2cccc(NC(=O)c3ccc(C#N)cc3)c2)cc1CN(C)CCN(C)C | 0.0747 µM |
| Cc1cc(C)cc(OCC(O)CN(Cc2cc(Cl)cc(Cl)c2)C(=O)Nc2ccccc2Cl)c1 (configuration not stated) | 0.944 µM |
| Cc1cc(N[C@@H](Cc2ccccc2)C(=O)NC2CCCC2)nc(NCCc2cccs2)n1 | 1.4 µM |
| Nc1cc(/C=C/c2ccc([N+](=O)[O-])s2)nc2ccccc12 | 0.76 µM |
| COc1ccccc1NC(=O)Nc1ccc(-c2ccc(-c3nc4cc(C(F)(F)F)ccc4[nH]3)cc2)cc1 | 0.544 µM |
| COc1cc2nc(SCC(C)C)n(CCCn3ccnc3)c(=N)c2cc1OC | 0.61 µM |
| O=C(N[C@@H](CC1CCCCC1)C(=O)NCCN1CCCCC1)c1ccc(O)c(-c2ccc(Cl)c(Cl)c2)c1 | 0.148 µM |
| Cc1cc(N(C)C)nc(Nc2ccc(NS(=O)(=O)c3ccccc3)cc2)n1 | 1.35 µM |
| Cc1cccc2nc(-c3ccc(-c4ccc(CN5CCCCC5)cc4)cc3)[nH]c12 | 0.589 µM |
| CC[C@H]1CN2CC[C@@H]1C[C@H]2[C@H](O)c1ccnc2ccc(OC)cc12 | 0.225 µM |

| Compound | XC50 |
| --- | --- |
| CN(C)c1ccc(-c2ccc(C(=O)NC3CCN(Cc4ccccc4)CC3)s2)cc1 | 1.05 µM |
| O=C(N[C@@H](Cc1ccccc1)C(=O)NC1CCCCCC1)c1ccc(O)c(-c2ccc(Cl)c(Cl)c2)c1 | 0.329 µM |
| O=C(Nc1cccc(-c2ccc(-c3nc4cc(F)ccc4[nH]3)cc2)c1)c1ccncc1 | 0.278 µM |
| CCc1ccc(NC(=O)c2cccc(CN3CCCN(CC4CCCCC4)CC3)c2)cc1 | 0.952 µM |
| Cc1[nH]c(C)c(-c2ccc(-c3ccc(Cl)cc3)cc2)c(=O)c1Cl | 0.215 µM |
| COc1cc(C(=O)NC2CCC(CN3CCC(c4c[nH]c5ccccc45)CC3)CC2)cc(Cl)n1 (configuration not stated) | 0.688 µM |
| CCCNc1ccc2nccc(CCN3CCC(NCc4ccc5c(n4)NC(=O)CS5)CC3)c2n1 | 0.72 µM |
| O=C(Cc1c[nH]cn1)Nc1ccc(-c2cccc(-c3nc4cc(C(F)(F)F)ccc4[nH]3)c2)cc1 | 0.742 µM |
| Cc1cccc(OCC2CCN(c3ncc(C(=O)NC4CC4)cc3Cl)CC2)c1 | 1.33 µM |
| CC(=O)Nc1ccc(OCCN(CC(C)C)c2ccc(C#N)c(C(F)(F)F)c2)c(Cl)c1 | 0.786 µM |
| COc1ccc2ncc(F)c(CCN3CC[C@@H](CNCc4nc5c(cc4C)SCC(=O)N5)C3)c2n1 | 1.15 µM |
| Cc1[nH]c(C)c(-c2ccc(OCc3cc(F)cc(F)c3)nc2)c(=O)c1Cl | 0.0868 µM |
| C=C[C@]1(C)C[C@@H](OC(=O)c2cncn(COC)c2=O)[C@]2(C)[C@H](C)CC[C@]3(CCC(=O)[C@H]32)[C@@H](C)[C@@H]1O | 0.878 µM |
| COc1ccc2nccc([C@@H](O)CN3CCC(NCc4ccc5c(c4)sc(=O)n5C)CC3)c2c1 | 0.258 µM |
| COc1ccc(OCC(=O)Nc2nc(-c3ccc(OC)cc3)c(C)s2)cc1 | 1.95 µM |
| CCNCCCC(C)Nc1ccnc2cc(Cl)ccc12 (configuration not stated) | 0.2 µM |
| O=C(NCc1ccc(F)cc1)Nc1ccc(-c2cccc(-c3nc4cc(C(F)(F)F)ccc4[nH]3)c2)cc1 | 0.946 µM |
| O=C(C=Cc1cn(-c2ccccc2)nc1-c1cccs1)N1CCN(c2ccncc2)CC1 | 0.721 µM |
| CSc1c(CNCCCNc2cc(=O)c3ccccc3[nH]2)[nH]c2ccccc12 | 1.12 µM |
| O=C(Nc1cccc(C(F)(F)F)c1)c1ccc(S(=O)(=O)NC2CCN(CC3CCCCC3)CC2)cc1 | 1.16 µM |
| COc1cc(Cc2cnc(N)nc2N)cc(OCCCCC2SC(=O)NC2=O)c1OC (configuration not stated) | 0.0307 µM |
| CCc1c(CCNCCCCCCNCCc2ccc(OC)cc2)ccc(OC)c1OC | 0.871 µM |
| CN1CCCC(CN2CCN(Cc3ccc(-c4ccc(-c5nc6ccccc6[nH]5)s4)cc3)CC2)C1 (configuration not stated) | 0.133 µM |
| CCNc1cc(C(=O)N[C@@H](Cc2ccco2)[C@H](O)CNC2CCCCC2)cc(N2CCCCS2(=O)=O)c1 | 1.01 µM |
| O=S(=O)(c1ccc(NC(S)=NN=Cc2ccccn2)cc1)N1CCCCC1 | 0.72 µM |

| Compound | XC50 |
| --- | --- |
| COc1cccc2cc(C(=O)N[C@@H](CC(C)C)C(=O)N[C@H](C=NN3CCCC3=O)Cc3ccccc3)oc12 | 0.557 µM |
| Cc1cccc2nc(-c3ccc(-c4ccc(CNCc5ccc(CN)cc5)cc4)s3)[nH]c12 | 0.442 µM |
| O=C(NCCCc1ccccc1)c1csc(C2CCCN(C(=O)c3ccc(O)c(-c4cccc5ccccc45)c3)C2)n1 (configuration not stated) | 0.967 µM |
| CN(C)CCC(O)(c1ccc(Br)cc1)c1cccnc1 (configuration not stated) | 0.831 µM |
| O=C(N[C@@H](CC1CCCCC1)C(=O)NC1CCCc2ccccc21)c1ccc(O)c(-c2ccc(Cl)c(Cl)c2)c1 (some centres not stated) | 0.195 µM |
| CCOc1cc(C(=O)NCC2CCN(CC3CCCCC3)CC2)ccc1-c1nc2cc(Cl)ccc2[nH]1 | 0.563 µM |
| COc1ccc2nccc([C@@H](O)CN3CCC(NCCOc4ccc(F)cc4Cl)CC3)c2c1 | 0.276 µM |
| COc1ccc(-c2cnc(N)nc2N)cc1Cl | 1.4 µM |
| CCCCCCN1CCC(NCc2ccc(OCCN3CCCC3)cc2)CC1 | 0.719 µM |
| CC(=O)C1=NN(c2ccc(Cl)cc2)C(c2cccs2)N1c1ccccc1 (configuration not stated) | 0.397 µM |
| CC(=O)/N=C1\N=C(NC(C)=O)NC(C)(C)N1OCCCOc1ccc(Cl)c(Cl)c1 | 0.00833 µM |
| Cc1cc(N2CCCC2)nc(Nc2ccc(NC(=O)c3ccccc3F)cc2)n1 | 0.922 µM |
| COc1ccc(CN2CCC(CN3CC4(OC3=O)c3ccccc3-c3ccccc34)C2)c(O)c1 (configuration not stated) | 0.613 µM |
| Cc1cc(C2CCN(CCCCNC(=O)c3ccc(-c4ccc(C#N)cc4)cc3)CC2)c(C)cc1O | 0.854 µM |
| Cc1cc2c(NC(=O)NC3CCN(CCc4ccccc4Cl)CC3)cccc2cn1 | 0.387 µM |
| CC1(C)NC(N)=NC(=N)N1OCCc1ccc(N)cc1 | 0.0032 µM |
| Cc1cccc2nc(-c3ccc(-c4ccc(CNCC5CCCO5)cc4)cc3)[nH]c12 (configuration not stated) | 0.678 µM |
| N=C(NCCCc1ccccc1)c1cccc(C(=N)NCCCc2ccccc2)n1 | 1.38 µM |
| CN1CCN(c2ccc(Nc3c4ccccc4nc4ccccc34)cc2)CC1 | 0.645 µM |
| CCN1CCc2nc3ccccc3c(C(=O)Nc3ccc(C#N)cc3)c2C1 | 0.78 µM |
| CNc1nc(N/N=C/c2cc([N+](=O)[O-])c(Cl)cc2Cl)nc(Nc2cccc(C(F)(F)F)c2)n1 | 0.729 µM |
| CC(C)N1CCC(N(Cc2ccc(-c3ccc(Cl)cc3)cc2)C(=O)Cn2c(CCc3cccc(F)c3F)nc(=O)c3ccccc32)CC1 | 0.944 µM |
